According to publication PMC9356065, “Novel psoralen derivatives as anti-breast cancer agents and their light-activated cytotoxicity against HER2 positive breast cancer cells” (Scientific Reports, 2022):

Experiments:
MDA-MB-231 [1] = test: MTT cytotoxicity, 48 h, without UVA; format: cell-based; details: Homo sapiens, MDA-MB-231, light or radiation study; for inhibition at 50 µg/mL: I = %inhibition lower than 50%, read-out: Cytotoxic activity MDA-MB-231 %Inhibition; for IC50: hormone-independent breast cancer, read-out: Cytotoxic activity MDA-MB-231 IC50
Method: (§1) MDA-MB-231 (triple-negative breast cancer) was obtained from M.D. Anderson Cancer Center, Houston, TX, USA). T47-D (hormone-dependent breast carcinoma), SK-BR-3 (human HER2+ breast cancer), and MRC-5 (normal embryonic lung fibroblast) were obtained from the American Type Culture Collection (ATCC, Manassas, VA, USA).
(§2) The cytotoxic effect of tested compounds was evaluated in two breast cancer cell lines, MDA-MB-231 and T47-D. Number of survival cells after exposure to tested compounds for 48 h was determined by MTT assay, as previously described.

T47-D = test: MTT cytotoxicity, 48 h, without UVA; format: cell-based, human; details: for IC50 / inhibition at 50 µg/mL: Homo sapiens, T47D, light or radiation study, 48 h, without UVA; for IC50: hormone-dependent breast cancer, read-out: Cytotoxic activity T47-D IC50; for inhibition at 50 µg/mL: I = %inhibition lower than 50%, read-out: Cytotoxic activity T47-D %Inhibition; for Selectivity Index (SI): SI = IC50 for MRC-5/IC50 for T47-D
Method: Additionally, the cytotoxicity towards normal cells, human embryonal lung fibroblast cell MRC-5 was also assessed.
as §1, §2

aromatase (CYP19) = target: T1, aromatase (CYP19) (Homo sapiens, UniProt P11511); test: Inhibition of aromatase (AIA); format: biochemical; details: for inhibition at 12.5 µM: I = %inhibition lower than 50%, read-out: Aromatase inhibitory activity %Inhibition; for IC50: read-out: Aromatase inhibitory activity IC50
T1 sequence (P11511 1-503): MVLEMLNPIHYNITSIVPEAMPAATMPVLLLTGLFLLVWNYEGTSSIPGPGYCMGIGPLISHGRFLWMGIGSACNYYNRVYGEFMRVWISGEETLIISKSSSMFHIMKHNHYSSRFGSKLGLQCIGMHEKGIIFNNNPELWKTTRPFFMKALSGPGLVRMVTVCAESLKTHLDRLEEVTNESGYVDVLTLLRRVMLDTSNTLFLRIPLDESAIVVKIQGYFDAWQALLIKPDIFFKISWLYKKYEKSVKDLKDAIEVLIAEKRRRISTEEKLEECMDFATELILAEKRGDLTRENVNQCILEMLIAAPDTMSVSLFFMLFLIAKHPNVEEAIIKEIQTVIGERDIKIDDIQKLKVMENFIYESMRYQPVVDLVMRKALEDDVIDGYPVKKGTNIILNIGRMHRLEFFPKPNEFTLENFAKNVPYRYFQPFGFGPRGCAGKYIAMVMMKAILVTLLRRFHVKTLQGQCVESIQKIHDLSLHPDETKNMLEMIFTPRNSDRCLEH
Method: Estrogens are the critical risk factor for breast cancer initiation and progression and the aromatase enzyme involves in the final step conversion of androgens to estrogens[21],[22]. […] In this study, the synthesized psoralen derivatives were also tested for aromatase inhibitory activity (AIA) which is considered to be one of chemopreventive mechanisms for hormone dependent breast cancer.
Inhibition of the aromatase was performed using the method designed by Stresser et al.[39].

[2] = Scavenging of diphenyl-picryl-hydrazyl radicals (DPPH); details: for DPPH %Inh: screening concentration 250 µM
Excerpt: 1. Chemoprevention activity

[3] = test system: differentiated HL-60 cells; test: Inhibition of TPA-induced superoxide anion radical generation (HL-60 Antioxidant); format: cell-based, human; details: screening concentration 100 µM; for inhibition at 100 µM: Homo sapiens, HL-60, read-out: HL-60 Antiox. %Inh
Excerpt: Inhibition of 12-O-tetradecanoylphorbol-13-acetate (TPA)-induced superoxide anion radical generation in differentiated HL-60 cells (HL-60 Antioxidant) TPA-induced superoxide anion radical formation was detected in differentiated HL-60 cells by photometric determination of cytochrome c reduction as previously described by Gerhäuser et al., 2003.ii Superoxide dismutase (SOD;15U) was a positive control. […]

SK-BR-3 [4] = test: Dark and light-activated (UVA) cytotoxicity, MTT; format: cell-based, human; details: Homo sapiens, SK-BR-3, light or radiation study; irradiation with UVA (2.0 J cm^−2); HER2+ breast cancer
Method: (§3) The selected compounds were screened for their IC50 values against both HER2+ breast cancer (SK-BR-3), and HER2− breast cancer (MDA-MB-231) in both dark and light-activated conditions (Table 2). Additionally, a negative control study was also performed with SK-BR-3 and MDA-MB-231 cells in the absence of tested compound under UVA irradiation (See Fig S7., Supporting Information).
(§4) SK-BR-3 and MDA-MB-231 cells were seeded into 96-well cell culture plates at 5 × 10^3 cells/well and incubated for 24 h at 37 °C under 5% CO2. After that, the cells were treated with 50 μM of psoralen derivatives in DMEM with 10% FBS and the cells were continued incubation for another 4 h. After incubation, the cells were washed with PBS (3 times) and then irradiated by a 365 nm lamp with the light intensity of 2.0 J cm^−2 for 12.5 min before re-incubation for another 72 h. After incubation, the cell was treated with methylthiazolyldiphenyl-tetrazolium bromide (MTT reagent 200 μL, 0.5 mg mL^−1, Sigma-Aldrich) for 2 h. After reagent removal, DMSO was added to dissolve the formazan product and the cell viabilities were determined through UV–Vis absorption of the resulting formazan at wavelength 560 nm using a microplate reader (BMG Labtech/SPECTROstar Nano). The cell morphology images were captured by using a light microscope (Microscope Nikon, inverted digital) at 20X magnification prior to treating with MTT reagent.

MDA-MB-231 [5] = test: Dark and light-activated (UVA) cytotoxicity, MTT; format: cell-based; details: Homo sapiens, MDA-MB-231, light or radiation study; irradiation with UVA (2.0 J cm^−2); HER2− breast cancer
Method: as §3, §4

[6] = Inhibition of superoxide radical formation by xanthine/xanthine oxidase (XXO); format: biochemical; details: for XXO %Inh: screening concentration 500 µM
Excerpt: 1. […]

SK-BR-3 [7] = test: Dark and light-activated (UVA) cytotoxicity, MTT; format: cell-based; details: Homo sapiens, dark, HER2+ breast cancer
MDA-MB-231 [8] = test: Dark and light-activated (UVA) cytotoxicity, MTT; format: cell-based; details: Homo sapiens, dark, HER2− breast cancer
MCF-7 = details: Fig. 1d; cited from earlier work
xanthine oxidase = xanthine oxidase (Homo sapiens, UniProt P47989); test: Inhibition of xanthine oxidase (IXO); format: biochemical; details: screening concentration 500 µM; read-out: IXO %Inh
Chain of xanthine oxidase (P47989 whole entry, species assumed): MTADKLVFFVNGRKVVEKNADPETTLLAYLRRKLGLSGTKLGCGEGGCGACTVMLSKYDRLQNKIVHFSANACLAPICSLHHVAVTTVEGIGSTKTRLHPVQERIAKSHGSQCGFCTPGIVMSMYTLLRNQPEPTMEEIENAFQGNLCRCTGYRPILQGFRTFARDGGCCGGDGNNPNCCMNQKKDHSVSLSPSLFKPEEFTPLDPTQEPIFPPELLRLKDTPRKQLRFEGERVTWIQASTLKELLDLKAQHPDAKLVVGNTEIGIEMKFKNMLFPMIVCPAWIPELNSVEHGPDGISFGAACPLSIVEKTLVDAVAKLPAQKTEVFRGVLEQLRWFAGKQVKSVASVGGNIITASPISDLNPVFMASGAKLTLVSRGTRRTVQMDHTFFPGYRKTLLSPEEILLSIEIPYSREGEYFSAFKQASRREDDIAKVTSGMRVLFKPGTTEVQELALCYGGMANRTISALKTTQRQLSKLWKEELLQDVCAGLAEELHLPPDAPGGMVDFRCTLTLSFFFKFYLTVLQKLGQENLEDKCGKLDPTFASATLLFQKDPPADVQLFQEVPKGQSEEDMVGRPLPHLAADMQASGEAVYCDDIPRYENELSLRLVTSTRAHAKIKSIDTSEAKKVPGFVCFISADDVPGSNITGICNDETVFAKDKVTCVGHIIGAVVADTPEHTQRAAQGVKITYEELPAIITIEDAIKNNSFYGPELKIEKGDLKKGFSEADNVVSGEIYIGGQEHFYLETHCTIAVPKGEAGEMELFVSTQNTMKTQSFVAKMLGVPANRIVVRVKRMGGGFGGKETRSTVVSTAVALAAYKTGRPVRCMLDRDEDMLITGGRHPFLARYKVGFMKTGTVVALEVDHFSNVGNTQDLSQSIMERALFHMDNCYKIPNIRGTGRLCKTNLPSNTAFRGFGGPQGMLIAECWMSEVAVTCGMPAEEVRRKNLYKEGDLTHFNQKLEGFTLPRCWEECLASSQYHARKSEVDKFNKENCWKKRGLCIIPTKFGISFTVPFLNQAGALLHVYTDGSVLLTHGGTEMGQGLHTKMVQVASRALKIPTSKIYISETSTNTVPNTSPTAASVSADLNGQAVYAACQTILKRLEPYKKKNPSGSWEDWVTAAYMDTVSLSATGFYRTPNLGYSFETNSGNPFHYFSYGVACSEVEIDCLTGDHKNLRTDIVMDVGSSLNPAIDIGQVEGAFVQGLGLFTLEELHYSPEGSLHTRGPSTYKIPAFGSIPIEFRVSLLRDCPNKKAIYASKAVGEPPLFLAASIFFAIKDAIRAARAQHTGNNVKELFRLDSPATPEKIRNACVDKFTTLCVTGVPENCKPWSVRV
Method: 1. […]
Inhibition of xanthine oxidase (IXO)
Xanthine oxidase activity was determined by quantifying the amount of uric acid produced
from xanthine. […]

SMILES	inhibition at 50 µg/mL (MDA-MB-231 [1])	inhibition at 12.5 µM (aromatase (CYP19))	DPPH %Inh [2]	inhibition at 100 µM [3]	melting point	inhibition at 50 µg/mL (T47-D)	other results
COc1c2occc2c([N+](=O)[O-])c2ccc(=O)oc12 [compound 1, 9-Methoxy-4-nitro-7H-furo[3,2-g]chromen-7-one]	39%	34%	5%	1%	237 to 238 °C	–	IC50 (T47-D): > 100 µM
COc1c2occc2c(NC(=O)c2ccc(F)cc2)c2ccc(=O)oc12 [3b, 4-Fluoro-N-(9-methoxy-7-oxo-7H-furo[3,2-g]chromen-4-yl)benzamide]	34%	6%	3%	1%	276 to 277 °C	49%	–
O=C1O[C@H]([C@@H](O)CO)C(O)=C1O [Ascorbic acid, reference compound]	–	–	–	–	–	–	IC50 ([2]; half-maximal scavenging concentration, reference compound, read-out: DPPH IC50 (standard)): 43.1 µM
COc1c2occc2c(NC(=O)c2cccs2)c2ccc(=O)oc12 [3h, N-(9-Methoxy-7-oxo-7H-furo[3,2-g]chromen-4-yl) thiophene-2-carboxamide]	8%	8%	6%	24%	213 to 214 °C	25%	–
CCCCCC(=O)N(C(=O)CCCCC)c1c2ccoc2c(OC)c2oc(=O)ccc12 [3m, N-Hexanoyl-N-(9-methoxy-7-oxo-7H-furo[3,2-g]chromen-4-yl)hexanamide]	5%	–	1%	0%	170 to 171 °C	15%	IC50 (aromatase (CYP19)): 9.4 ± 0.4 µM; IC50 (SK-BR-3 [4]): 27.1 ± 1.2 µM; IC50 (MDA-MB-231 [5]): > 100 µM; XXO %Inh [6]: 2%; IC50 (SK-BR-3 [7]): > 100 µM; IC50 (MDA-MB-231 [8]): > 100 µM
COc1c2occc2c(N2C(=O)CSC2c2ccc(Br)cc2)c2ccc(=O)oc12 (centres unmarked) [III]	–	–	–	–	–	–	anti-cancer activity (MCF-7) (MCF-7): Inactive
COc1c2occc2c(NC(=S)NCc2ccccc2)c2ccc(=O)oc12 [IVb]	–	–	–	–	–	–	anti-cancer activity (MCF-7) (MCF-7): Inactive
COc1c2occc2c(NC(=O)c2ccc(C(F)(F)F)cc2)c2ccc(=O)oc12 [3d, N-(9-Methoxy-7-oxo-7H-furo[3,2-g]chromen-4-yl)-4-(trifluoromethyl)benzamide]	35%	10%	7%	–	284 to 286 °C	–	fold superiority of SI over tamoxifen citrate (T47-D): ≥ 2.8 fold; IC50 (T47-D): 13.6 ± 0.26 µM; Selectivity Index (SI) (T47-D): > 9.1; HL-60 Antiox. %Inh [3]: Toxic
COc1c2occc2c(N)c2ccc(=O)oc12 [compound 2, 4-Amino-9-methoxy-7H-furo[3,2-g]chromen-7-one]	3%	9%	23%	0%	238 to 239 °C	28%	–
O=C(O)c1cc(O)c(O)c(O)c1 [Gallic acid, reference compound]	–	–	–	–	–	–	IC50 ([6]; positive control, read-out: XXO IC50 (standard)): 2.8 ± 0.1 µM
COc1c2occc2c(NC(=O)c2ccc(Br)cc2)c2ccc(=O)oc12 [3c, 4-Bromo-N-(9-methoxy-7-oxo-7H-furo[3,2-g]chromen-4-yl)benzamide]	–	13%	6%	–	293 to 294 °C	–	IC50 (MDA-MB-231 [1]): 91.3 ± 7.84 µM; IC50 (T47-D): 10.1 ± 0.53 µM; Selectivity Index (SI) (T47-D): > 11.9; HL-60 Antiox. %Inh [3]: Toxic; XXO %Inh [6]: 25%
COc1c2occc2c(NC(=O)c2ccccc2)c2ccc(=O)oc12 [3a, N-(9-Methoxy-7-oxo-7H-furo[3,2-g]chromen-4-yl)benzamide]	25%	3%	6%	3%	220 to 222 °C	45%	–
COc1c2occc2c(NC(C)=O)c2ccc(=O)oc12 [3i, N-(9-Methoxy-7-oxo-7H-furo[3,2-g]chromen-4-yl)acetamide]	6%	7%	1%	11%	251 to 252 °C	20%	inhibition at 500 µM (xanthine oxidase): 47%
CCNC(=S)Nc1c2ccoc2c(OC)c2oc(=O)ccc12 [IVa]	–	–	–	–	–	–	anti-cancer activity (MCF-7) (MCF-7): Inactive
COc1c2occc2c(NC(=O)C(C)(C)C)c2ccc(=O)oc12 [3l, N-(9-Methoxy-7-oxo-7H-furo[3,2-g]chromen-4-yl)pivalamide]	1%	14%	1%	10%	210 to 212 °C	21%	IC50 (SK-BR-3 [4]): 48.1 ± 3.07 µM; IC50 (MDA-MB-231 [5]): > 100 µM; IC50 (SK-BR-3 [7]): > 100 µM; IC50 (MDA-MB-231 [8]): > 100 µM
COc1ccc(C(=O)Nc2c3ccoc3c(OC)c3oc(=O)ccc23)cc1 [3e, 4-Methoxy-N-(9-methoxy-7-oxo-7H-furo[3,2-g]chromen-4-yl)benzamide]	19%	15%	4%	0%	211 to 212 °C	38%	IC50 (SK-BR-3 [4]): 66.7 ± 2.75 µM; IC50 (MDA-MB-231 [5]): > 100 µM; IC50 (SK-BR-3 [7]): > 100 µM; IC50 (MDA-MB-231 [8]): > 100 µM
COc1c2occc2c(N=Cc2cccs2)c2ccc(=O)oc12 [II]	–	–	–	–	–	–	anti-cancer activity (MCF-7) (MCF-7): Inactive
COc1c2occc2c(NCc2ccc(Br)cc2)c2ccc(=O)oc12 [4b, 4-((4-Bromobenzyl)amino)-9-methoxy-7H-furo[3,2-g]chromen-7-one]	–	–	–	–	150 to 151 °C	–	IC50 (MDA-MB-231 [1]): 94.4 ± 4.77 µM; fold superiority of SI over tamoxifen citrate (T47-D): ≥ 3.7 fold; IC50 (T47-D): 10.4 ± 0.79 µM; Selectivity Index (SI) (T47-D): > 12.0; IC50 (aromatase (CYP19)): 0.9 ± 0.2 µM; IC50 ([2]; read-out: DPPH IC50): 166 µM; HL-60 Antiox. %Inh [3]: Toxic
